Where two headings read alike, the source gives them in different places.
How the values were obtained:
[1] = tested on: anandamide membrane transporter (AMT); format: cell-based, rat; conditions: [14C]AEA uptake, RBL-2H3 cells
Procedure: (§1) The effect of compounds on the enzymatic hydrolysis of [^14C] AEA (6 μM) was studied by using membranes prepared from N18TG2 cells incubated with increasing concentrations of compounds in 50 mM Tris-HCL, pH 9, for 30 min at 37° C. [^14C] Ethanolamine produced from [^14C] AEA hydrolysis was quantified by scintillation spectroscopy and used to measure fatty acid amide hydrolase (FAAH) activity. The effect of compounds on the uptake of AEA by RBL-2H3 cells was studied with a procedure analogous to that described in Melck, ibid., and modified as described in Hilliard et al., J. Neurochem. 69:631-638 (1997). Cells were incubated with [^14C] AEA (4μM) for 5 min. at 37° C., in the presence or absence of varying concentrations of the inhibitors. Residual [1^4C] AEA in the incubation media after extraction with CHCl3/CH30H (2:1 by volume) was used as a measure of the AEA that was taken up by cells.
In consideration of the potent inhibition of the AMT previously observed with arvanil and its derivatives (see Melck, ibid), the seven compounds were also tested for their inhibitory effect on [^4C] […] Thus, the results in Table 1 confirm the existence of a partial overlap between the ligand recognition properties of VR1 receptors and the AMT (14.24).

[2] = target: T1, fatty acid amide hydrolase (FAAH) (Mus musculus, UniProt O08914); assay: [14C]AEA hydrolysis by N18TG2 cell membranes; format: biochemical
T1 construct: membranes prepared from N18TG2 cells; endogenous in cells; host or cells: N18TG2 cell membranes
T1 sequence (O08914 1-579): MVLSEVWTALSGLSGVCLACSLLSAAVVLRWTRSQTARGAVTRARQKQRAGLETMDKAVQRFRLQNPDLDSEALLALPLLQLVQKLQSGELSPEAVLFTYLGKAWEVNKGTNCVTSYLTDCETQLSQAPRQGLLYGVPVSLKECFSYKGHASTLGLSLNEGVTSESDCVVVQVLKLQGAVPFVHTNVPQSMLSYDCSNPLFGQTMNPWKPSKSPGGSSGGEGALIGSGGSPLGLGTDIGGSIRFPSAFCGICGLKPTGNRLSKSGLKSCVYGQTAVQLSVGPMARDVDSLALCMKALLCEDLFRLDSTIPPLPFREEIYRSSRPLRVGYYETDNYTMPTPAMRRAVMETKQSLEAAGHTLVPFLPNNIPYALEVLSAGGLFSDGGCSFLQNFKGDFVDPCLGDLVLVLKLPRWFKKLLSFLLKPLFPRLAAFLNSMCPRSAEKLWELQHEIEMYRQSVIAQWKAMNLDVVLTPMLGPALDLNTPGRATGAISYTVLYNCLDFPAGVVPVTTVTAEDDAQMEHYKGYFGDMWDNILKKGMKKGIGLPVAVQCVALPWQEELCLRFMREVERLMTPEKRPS
Procedure: as §1
Accordingly, when the compounds were tested for their capability of inhibiting [^14C] […] This is in agreement with previous observations that Me-AEA, DMH-derivatives of AEA and arvanil are poor substrates for FAAH. The two exceptions were O-1856 and O-1895, which did inhibit the hydrolysis of [^14C] AEA, although not very potently.

CB2 receptors = target: T2, CB2 receptors (Rattus norvegicus, UniProt Q9QZN9); assay: CB2 binding, displacement of [3H]WIN55,212-2 from rat spleen membranes
T2 construct: rat spleen membranes, which contain mostly CB2 receptors; from tissue; host or cells: rat spleen membranes
T2 sequence (Q9QZN9 1-360): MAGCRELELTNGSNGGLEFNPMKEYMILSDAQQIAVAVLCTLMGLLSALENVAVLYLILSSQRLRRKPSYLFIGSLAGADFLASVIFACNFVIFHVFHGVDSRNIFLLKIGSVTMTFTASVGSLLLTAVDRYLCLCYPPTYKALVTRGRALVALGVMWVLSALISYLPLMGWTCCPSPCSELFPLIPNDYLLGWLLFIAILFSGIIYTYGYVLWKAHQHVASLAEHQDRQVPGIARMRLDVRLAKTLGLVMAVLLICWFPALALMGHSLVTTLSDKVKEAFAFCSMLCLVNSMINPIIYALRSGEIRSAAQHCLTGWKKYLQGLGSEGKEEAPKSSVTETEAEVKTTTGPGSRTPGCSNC
Procedure: (§2) For CB1 receptor binding, [^3H]CP-55,940 (Kd=[…]) was incubated with P2 membranes from whole rat brains as described in Compton et al., J. Pharm. Exp. Ther. 265:218-226 (1993). Displacement curves were generated by incubating drugs with 1 nM of [^3H]CP-55,940. The assays were performed in triplicate, and the results represent the combined data from three individual experiments. A separate set of experiments were conducted in which phenylmthylsulfonylfluoride (PMSF) was added at a concentration of 100 μm in order to prevent possible metabolism of the analogs. CB2 binding assays were performed as described in Melek et al., ibid. In all cases, Ki values were calculated applying the Cheng-Prusoff equation to the IC50 values (obtained by GraphPad) for the displacement of the bound radioligand by increasing concentrations of the test compounds.
(§3) In Table 1, affinity for CB1 and CB2 receptors was measured in displacement assays carried out using rat brain or spleen membranes and [^3H]CP 55,940 or […], respectively. Potency at human VR1 was established by measuring the stimulatory activity of the compounds on the Ca^2+ intracellular concentration in HEK cells transfected with cDNA encoding the human VR1 receptor. Efficacy at VR1 was measured by expressing the effect of a maximal concentration of each compound (usually 10 μM) as percent of the maximal possible effect obtained with 4 μM ionomycin. Data are means ±SEM of at least n=3 separate determinations. *Ki was determined in the presence of PMSF.
The hydroxy analog is much less CB1 vs. CB2 selective in both series.

CB1 receptors = CB1 receptors (Rattus norvegicus, UniProt P20272); assay: CB1 receptor binding, displacement of [3H]CP-55,940 from rat brain P2 membranes (Example 2); design: from tissue; host or cells: whole rat brain membranes; conditions: for Ki: rat brain membranes
Chain of CB1 receptors (P20272 whole entry): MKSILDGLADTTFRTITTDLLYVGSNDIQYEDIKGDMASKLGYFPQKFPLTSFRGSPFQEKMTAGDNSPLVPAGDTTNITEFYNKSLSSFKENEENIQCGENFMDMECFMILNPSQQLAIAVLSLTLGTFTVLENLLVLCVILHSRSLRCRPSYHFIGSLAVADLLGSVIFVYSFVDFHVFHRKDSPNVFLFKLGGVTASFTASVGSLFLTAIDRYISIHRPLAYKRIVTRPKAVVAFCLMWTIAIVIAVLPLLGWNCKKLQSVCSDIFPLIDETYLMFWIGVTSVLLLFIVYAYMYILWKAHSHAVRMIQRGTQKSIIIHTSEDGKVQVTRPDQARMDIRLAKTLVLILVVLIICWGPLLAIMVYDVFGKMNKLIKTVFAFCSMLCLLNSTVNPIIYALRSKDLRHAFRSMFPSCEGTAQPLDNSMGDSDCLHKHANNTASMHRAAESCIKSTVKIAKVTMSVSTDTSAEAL
Procedure: as §2, §3

mice = assay: Mouse 'tetrad' of tests after i.v. administration (Example 2); conditions: for ED50: Mus musculus, iv
human VR1 receptor = human VR1 receptor (Homo sapiens, UniProt Q8NER1); assay: Ca2+ influx (Fluo-3) in HEK-hVR1 cells (Example 2); format: cell-based; design: expressed in transfected cells; host or cells: HEK 293 cells (HEK-hVR1); conditions: for VR1 efficacy: maximal concentration (usually 10 μM), percent of effect of 4 μM ionomycin
Chain of human VR1 receptor (Q8NER1 whole entry): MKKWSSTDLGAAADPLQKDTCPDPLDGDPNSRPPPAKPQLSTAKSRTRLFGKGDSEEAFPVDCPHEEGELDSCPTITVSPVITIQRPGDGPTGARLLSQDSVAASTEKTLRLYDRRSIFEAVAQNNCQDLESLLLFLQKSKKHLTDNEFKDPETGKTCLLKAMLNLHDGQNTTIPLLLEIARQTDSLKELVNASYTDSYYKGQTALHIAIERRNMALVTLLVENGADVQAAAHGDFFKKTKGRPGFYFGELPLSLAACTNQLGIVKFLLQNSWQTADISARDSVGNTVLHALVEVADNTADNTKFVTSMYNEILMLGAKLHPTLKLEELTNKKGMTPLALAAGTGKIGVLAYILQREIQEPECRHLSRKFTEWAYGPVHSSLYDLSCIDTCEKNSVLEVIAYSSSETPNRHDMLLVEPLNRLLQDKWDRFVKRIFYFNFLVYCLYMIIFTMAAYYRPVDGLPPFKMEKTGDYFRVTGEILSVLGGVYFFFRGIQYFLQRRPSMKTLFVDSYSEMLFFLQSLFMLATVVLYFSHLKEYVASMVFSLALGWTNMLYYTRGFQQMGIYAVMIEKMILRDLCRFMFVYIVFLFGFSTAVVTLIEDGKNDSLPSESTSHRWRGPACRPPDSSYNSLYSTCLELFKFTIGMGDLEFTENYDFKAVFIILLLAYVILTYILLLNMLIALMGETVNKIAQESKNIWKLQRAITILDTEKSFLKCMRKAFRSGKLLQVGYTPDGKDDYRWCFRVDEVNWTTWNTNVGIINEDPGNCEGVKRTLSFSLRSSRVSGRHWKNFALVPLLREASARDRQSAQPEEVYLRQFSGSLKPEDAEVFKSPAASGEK
Procedure: N18TG2 and RBL-2H3 cells were grown as described in Melck et al, Bioch. Biophys. Res. Commun. 262:275-284 (1999). Ionomycin was purchased from Sigma. DMH-arvanil, and six substituted dimethylpentyl (DMP) derivatives of arvanil and met-AEA were synthesized as described in Example 1.
HEK-hVR1 cells were prepared and loaded as described in De Petrocellis, et al., FEBS Lett. 483:52-56 (2000). Experiments were carried out by measuring fluorescence at 25° C. […] Capsazepine (1-5 μM) was added 30 minu. Before the test compounds.
as §3

AMT = format: cell-based, rat; conditions: RBL-2H3 cells; read-out: AMT IC50
Procedure: AEA. Cells were incubated with [^14C] AEA for 5 min at 37° C., in the presence or absence of varying concentrations of the inhibitors. Residual [^14C] AEA in the incubation media after extraction with CHCl3/CH3OH 2:1 (by vol.), determined by scintillation counting of the lyophilized organic phase, was used as a measure of the AEA that was taken up by cells.
CP55940 from whole rat brain membranes.

[3] = CB1 (Ki, nM), determined in the presence of PMSF, [3H]CP 55,940, PMSF 100 μM
[4] = CB1 (Ki, nM), [3H]CP 55,940, without PMSF
[5] = read-out: Average ED50 for the four effects
[6] = read-out: R.I. (relative immobility) ED50
[7] = read-out: R.T. (rectal temperature) ED50
[8] = read-out: S.A. (spontaneous activity) ED50
[9] = read-out: T.F. (tail-flick) ED50
[10] = VR1 (EC50, nM), Ca2+ in HEK cells with human VR1
[11] = VR1 EC50, HEK cells with human VR1

## COc1cc(CNC(=O)CCC/C=C\C/C=C\C/C=C\C/C=C\C(C)(C)CCCCC#N)ccc1O [Compound O-1895, 20-Cyano-16,16-dimethyl-eicosa-5,8,11,14-all-cis-tetraenoic acid (4-hydroxy-3-methoxy-benzyl) amide]
[1]
  IC50: 38400 ± 3100 nM
[2]
  IC50: 18000 ± 2700 nM
CB2 receptors
  Ki: 5000 ± 850 nM
CB1 receptors; [3]
  Ki: 44.8 ± 8.3 nM
CB1 receptors; [4]
  Ki: 67 ± 7.5 nM
mice; [5]
  ED50: 0.219 mg/kg
mice; [6]
  ED50: 0.168 mg/kg
mice; [7]
  ED50: 0.179 mg/kg
mice; [8]
  ED50: 0.265 mg/kg
mice; [9]
  ED50: 0.263 mg/kg
Human VR1 receptor; [10]
  EC50: 1 ± 0.2 nM
Human VR1 receptor
  VR1 efficacy: 83.1 ± 6.1%

## C[C@H](CO)NC(=O)CCC/C=C\C/C=C\C/C=C\C/C=C\C(C)(C)CCCCBr [Compound O-1860, (R)-(20-Bromo-16,16-Dimethyleicosa-cis-5,8,11,14-tetraenoyl)-1′-hydroxy-2′-propylamine]
[1]
  IC50: 40000 ± 4500 nM
[2]
  IC50: > 50000 nM
CB2 receptors
  Ki: > 10000 nM
CB1 receptors; [3]
  Ki: 1 ± 0.1 nM
CB1 receptors; [4]
  Ki: 2.2 nM
mice; [5]
  ED50: 0.388 mg/kg
mice; [6]
  ED50: 0.43 mg/kg
mice; [7]
  ED50: 0.44 mg/kg
mice; [8]
  ED50: 0.39 mg/kg
mice; [9]
  ED50: 0.29 mg/kg
Human VR1 receptor; [10]
  EC50: 371 ± 34 nM
Human VR1 receptor; [11]
  EC50: 370 nM
Human VR1 receptor
  VR1 efficacy: 50.0%
Human VR1 receptor; listed as 0-1860
  VR1 efficacy: 62.1 ± 5.7%

## CCCCC/C=C\C/C=C\C/C=C\C/C=C\CCCC(=O)Nc1ccc(O)cc1 [AM404, reference compound]
[1]
  IC50: 8100 nM
AMT
  IC50: 8100 ± 2600 nM

## CCCCCCC(C)(C)/C=C\C/C=C\C/C=C\C/C=C\CCCC(=O)NCc1ccc(O)c(OC)c1 [Compound O-1839, 16,16-Dimethyl-docosa-5,8,11,14-all-cis-tetraenoic acid (4-hydroxy-3-methoxy-benzyl) amide]
[1]
  IC50: 19300 ± 2300 nM
[2]
  IC50: > 50000 nM
CB2 receptors
  Ki: > 10000 nM
CB1 receptors; [3]
  Ki: 201 ± 4.1 nM
CB1 receptors; [4]
  Ki: 262 nM
mice; [5]
  ED50: 0.078 mg/kg
mice; [7]
  ED50: 0.08 mg/kg
mice; [8]
  ED50: 0.08 mg/kg
mice; [9]
  ED50: 0.074 mg/kg
Human VR1 receptor; [10]
  EC50: 0.7 ± 0.08 nM
Human VR1 receptor
  VR1 efficacy: 71.9 ± 4.5%

## C[C@H](CO)NC(=O)CCC/C=C\C/C=C\C/C=C\C/C=C\C(C)(C)CCCCC#N [Compound O-1812, (R)-(20-cyano-16,16-Dimethyleicosa-cis-5,8,11,14-tetraenoyl)-1′-hydroxy-2′-propylamine]
[1]
  IC50: 37000 ± 4500 nM
[2]
  IC50: > 50000 nM
CB2 receptors
  Ki: 3870 ± 235 nM
CB1 receptors
  fold more potent on CB1 than on CB2: 1000 fold
  fold more potent on CB1 than on VR1: 580 fold
CB1 receptors; [3]
  Ki: 4.6 ± 0.4 nM
CB1 receptors; [4]
  Ki: 3.4 ± 0.5 nM
mice; [5]
  ED50: 0.025 mg/kg
mice; [6]
  ED50: 0.017 mg/kg
mice; [7]
  ED50: 0.05 mg/kg
mice; [8]
  ED50: 0.017 mg/kg
mice; [9]
  ED50: 0.014 mg/kg
Human VR1 receptor; [10]
  EC50: 1950 ± 184 nM
Human VR1 receptor; [11]
  EC50: 1900 nM
Human VR1 receptor
  VR1 efficacy: 50.0%
Human VR1 receptor; listed as 0-1812
  VR1 efficacy: 50.0 ± 1.6%

## C[C@H](CO)NC(=O)CCC/C=C\C/C=C\C/C=C\C/C=C\C(C)(C)CCCCO [Compound O-1811, (R)-(16,16-Dimethyl-20-hydroxyeicosa-cis-5,8,11,14-tetraenoyl)-1′-hydroxy-2′-propylamine]
[1]
  IC50: 42500 ± 3300 nM
[2]; [14C]AEA hydrolysis, N18TG2 cell membranes, read-out: FAAH (IC50)
  IC50: > 50000 nM
CB2 receptors; rat spleen membranes, read-out: CB2 (Ki)
  Ki: 800 ± 150 nM
CB1 receptors; [3H]CP 55,940, PMSF 100 μM, read-out: CB1 (Ki, nM), determined in the presence of PMSF
  Ki: 116 ± 11.1 nM
CB1 receptors; [3H]CP 55,940, without PMSF, read-out: CB1 (Ki)
  Ki: 115 ± 25.2 nM
mice; [5]
  ED50: 0.773 mg/kg
mice; [6]
  ED50: 0.663 mg/kg
mice; [7]
  ED50: 0.188 mg/kg
mice; [8]
  ED50: 0.996 mg/kg
mice; [9]
  ED50: 1.24 mg/kg
mice; mice, i.v.
  fold more potent in reducing body temperature than in increasing tail-flick latency: approximately 10 fold
Human VR1 receptor; Ca2+ in HEK cells with human VR1, read-out: VR1 (EC50)
  EC50: 724 ± 99 nM
Human VR1 receptor
  VR1 efficacy: 62.5 ± 0.8%

## COc1cc(CNC(=O)CCC/C=C\C/C=C\C/C=C\C/C=C\C(C)(C)CCCCO)ccc1O [Compound O-1856, 16,16-Dimethyl-20-hydroxy-eicosa-5,8,11,14-all-cis-tetraenoic acid (4-hydroxy-3-methoxy-benzyl) amide]
[1]
  IC50: 42000 nM
[1]; listed as 0-1856
  IC50: 40000 ± 3800 nM
[2]
  IC50: 14500 ± 3400 nM
CB2 receptors
  Ki: > 10000 nM
CB1 receptors; [3]
  Ki: 1070 ± 134 nM
CB1 receptors; [4]
  Ki: 790 nM
mice; [5]
  ED50: 0.873 mg/kg
mice; [6]
  ED50: 0.76 mg/kg
mice; [7]
  ED50: 1.45 mg/kg
mice; [8]
  ED50: 0.47 mg/kg
mice; [9]
  ED50: 0.81 mg/kg
Human VR1 receptor; [10]
  EC50: 5 ± 0.7 nM
Human VR1 receptor
  VR1 efficacy: 83.9 ± 5.1%
